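Following 48 hours of exposure in 96-well plates, responses at five concentrations were used to interpolate endpoints linearly. GI50 marks 50% less growth. TGI: total growth inhibition.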
How the values were obtained:
Experiment in all cases: NCI tumour cell line growth inhibition, 48 h
[1] = system: HT29 colon
[2] = system: KM12 colon
[3] = system: DU-145 prostate
[4] = system: SR leukemia
[5] = system: M14 melanoma
[6] = system: EKVX NSCLC
[7] = system: COLO 205 colon
[8] = system: HOP-92 NSCLC
[9] = system: MALME-3M melanoma
[10] = system: HL-60(TB) leukemia
[11] = system: RXF 393 renal
[12] = system: SK-MEL-2 melanoma
[13] = system: OVCAR-8 ovarian
[14] = system: IGROV1 ovarian
[15] = system: TK-10 renal
[16] = system: UACC-62 melanoma
[17] = system: K-562 leukemia
[18] = system: SNB-75 CNS
[19] = system: CCRF-CEM leukemia
[20] = system: NCI-H226 lung
[21] = system: BT-549 breast
[22] = system: A498 renal
[23] = system: MCF7 breast
[24] = system: NCI/ADR-RES ovarian
[25] = system: UACC-257 melanoma
[26] = system: ACHN renal
[27] = system: CAKI-1 renal
[28] = system: SF-295 CNS
[29] = system: HOP-62 NSCLC
[30] = system: 786-0 renal
[31] = system: OVCAR-4 ovarian
[32] = system: SNB-19 CNS
[33] = system: SF-539 CNS
[34] = system: RPMI-8226 leukemia
[35] = system: PC-3 prostate
[36] = system: MDA-MB-231 breast
[37] = system: T-47D breast
[38] = system: HS 578T breast
[39] = system: MOLT-4 leukemia
[40] = system: SF-268 CNS
[41] = system: UO-31 renal
[42] = system: U251 CNS
[43] = system: MDA-MB-435
[44] = system: SK-MEL-5 melanoma
[45] = system: SN12C renal
[46] = system: OVCAR-5 ovarian
[47] = system: HCT-15 colon
[48] = system: LOX IMVI melanoma
[49] = system: HCC-2998 colon
[50] = system: SK-OV-3 ovarian
[51] = system: HCT-116 colon
[52] = system: NCI-H460 lung
[53] = system: A549 NSCLC
[54] = system: NCI-H522 lung
[55] = system: SK-MEL-28 melanoma
[56] = system: SW-620 colon

Work on `O=C1C(N2CCN(c3ccccc3)CC2)=C(Cl)C(=O)c2ncccc21` yielded a GI50 [1] of 12 µM, a TGI [1] of 27.3 µM and a GI50 [2] of 20.7 µM. For the same compound, the TGI [2] was 43.6 µM, the GI50 [3] was 11.3 µM and the TGI [3] was 23.6 µM. For the same compound, the GI50 [4] was 1.89 µM, the TGI [4] was 6.42 µM and the GI50 [5] was 3.92 µM. The TGI [5] was 14.7 µM, the GI50 [6] was 1.73 µM and the TGI [6] was 3.38 µM. For the same compound, the GI50 [7] was 4.53 µM, the TGI [7] was 17.1 µM and the GI50 [8] was 1.49 µM. The TGI [8] was 2.93 µM, the GI50 [9] was 1.95 µM and the TGI [9] was 4.25 µM. The GI50 [10] was 1.36 µM, the TGI [10] was 3.94 µM and the GI50 [11] was 1.87 µM. The TGI [11] was 3.43 µM, the GI50 [12] was 11.2 µM and the TGI [12] was 23.6 µM. For the same compound, the GI50 [13] was 4.72 µM, the TGI [13] was 17.6 µM and the GI50 [14] was 3.48 µM. It also gave a TGI [14] of 12.3 µM, a GI50 [15] of 12.4 µM and a TGI [15] of 25.5 µM. For the same compound, the GI50 [16] was 3.43 µM, the TGI [16] was 12.4 µM and the GI50 [17] was 2.04 µM. It also gave a TGI [17] of 5.51 µM, a GI50 [18] of 17.5 µM and a TGI [18] of 38 µM. For the same compound, the GI50 [19] was 2.33 µM, the TGI [19] was 6.65 µM and the GI50 [20] was 14.3 µM. It also gave a TGI [20] of 31.9 µM, a GI50 [21] of 10.2 µM and a TGI [21] of 21.8 µM. For the same compound, the GI50 [22] was 13.5 µM, the TGI [22] was 34 µM and the GI50 [23] was 1.65 µM. For the same compound, the TGI [23] was 3.6 µM, the GI50 [24] was 4.33 µM and the TGI [24] was 20.7 µM. The GI50 [25] was 2.21 µM, the TGI [25] was 6.22 µM and the GI50 [26] was 2.21 µM. The TGI [26] was 5.8 µM, the GI50 [27] was 5.5 µM and the TGI [27] was 18.2 µM. It also gave a GI50 [28] of 14.2 µM, a TGI [28] of 27.3 µM and a GI50 [29] of 17.3 µM. The TGI [29] was 31.4 µM, the GI50 [30] was 6.43 µM and the TGI [30] was 18.8 µM. The GI50 [31] was 1.79 µM, the TGI [31] was 3.44 µM and the GI50 [32] was 16.1 µM. It also gave a TGI [32] of 30.6 µM, a GI50 [33] of 6.96 µM and a TGI [33] of 20 µM. The GI50 [34] was 2.1 µM, the TGI [34] was 5.37 µM and the GI50 [35] was 9.22 µM. For the same compound, the TGI [35] was 23.1 µM, the GI50 [36] was 1.68 µM and the TGI [36] was 3.21 µM. The GI50 [37] was 1.76 µM, the TGI [37] was 3.95 µM and the GI50 [38] was 13.6 µM. It also gave a TGI [38] of 47.4 µM, a GI50 [39] of 1.97 µM and a TGI [39] of 5.38 µM. The GI50 [40] was 15.2 µM, the TGI [40] was 29.6 µM and the GI50 [41] was 1.91 µM. It also gave a TGI [41] of 4.3 µM, a GI50 [42] of 10.3 µM and a TGI [42] of 22.7 µM. For the same compound, the GI50 [43] was 1.77 µM, the TGI [43] was 3.29 µM and the GI50 [44] was 13.1 µM. It also gave a TGI [44] of 25.7 µM, a GI50 [45] of 4.97 µM and a TGI [45] of 17.8 µM. For the same compound, the GI50 [46] was 16.6 µM, the TGI [46] was 32 µM and the GI50 [47] was 2.08 µM. It also gave a TGI [47] of 6.22 µM, a GI50 [48] of 1.59 µM and a TGI [48] of 3.07 µM. The GI50 [49] was 12 µM, the TGI [49] was 24.9 µM and the GI50 [50] was 13.8 µM. For the same compound, the TGI [50] was 29.9 µM, the GI50 [51] was 1.73 µM and the TGI [51] was 3.11 µM. The GI50 [52] was 6.73 µM, the TGI [52] was 22.4 µM and the GI50 [53] was 16.5 µM. It also gave a TGI [53] of 32.6 µM, a GI50 [54] of 1.73 µM and a TGI [54] of 3.55 µM. The GI50 [55] was 3.31 µM, the TGI [55] was 10.3 µM and the GI50 [56] was 1.67 µM. For the same compound, the TGI [56] was 3.89 µM.
